Source: patent US10793568B2, “Hormone receptor modulators for treating metabolic conditions and disorders” (ARDELYX, INC., priority 2016, dated 2020)

Target: ligand binding domain of human FXR (Homo sapiens (Human), UniProt Q96RI1)
Assay: FXR ligand binding assay (LanthaScreen TR-FRET, SRC2-2 peptide recruitment)
Conditions: for pEC50: -log EC50, concentration required to produce 50% activation; for Emax: extent of activation relative to GW4064, read-out: % Efficacy
Description: The affinity of FXR ligands for the ligand binding domain of FXR was determined using a commercially available human FXR ligand binding assay (LanthaScreen, Thermofisher Cat # PV4833). […] Binding of FXR ligands to the FXR ligand binding domain promotes binding of the fluorescein-labelled SRC2-2 peptide. This causes a FRET signal between the terbium-labelled anti-GST antibody and the fluorescein-labelled SRC peptide which are both bound to the FXR ligand binding domain.
Test compounds are dissolved in DMSO and a 3-fold serial dilution series is generated, then further diluted into assay buffer. The compounds are mixed with 5 nM GST-tagged FXR ligand binding domain, 5 nM Tb-labelled anti-GST antibody and 500 nM fluorescein-labelled SRC2-2 peptide in a pH7.4 buffer. The reaction is incubated at room temperature for 1 hour, then the FRET signal is measured as the ratio of the 520 nm/495 nm emission following excitation at 340 nm. The change in FRET signal is plotted against the test article concentration and fit to a 3-parameter logistical equation. The concentration required to produce 50% activation is expressed as pEC50 (−log EC50), and the extent of activation is expressed relative to GW4064 as % activation.

Chain of ligand binding domain of human FXR (Q96RI1 262-486): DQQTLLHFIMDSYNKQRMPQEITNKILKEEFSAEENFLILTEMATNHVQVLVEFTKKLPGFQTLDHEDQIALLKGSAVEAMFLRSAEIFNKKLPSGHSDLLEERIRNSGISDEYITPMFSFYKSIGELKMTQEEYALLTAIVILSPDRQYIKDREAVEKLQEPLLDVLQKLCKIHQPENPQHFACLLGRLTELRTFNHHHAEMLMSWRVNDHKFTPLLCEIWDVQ

Row | SMILES | pEC50 | Emax
1 | O=C(NS(=O)(=O)C1CC1)c1ncc(N2C(=O)[C@@H]3C[C@H]2C[C@H]3OCc2c(-c3c(Cl)cccc3Cl)noc2C2CC2)cc1F [Compound I-355, 5-((1S,4R,5R)-5-((5-cyclopropyl-3-(2,6-dichlorophenyl)isoxazol-4-yl)methoxy)-3-oxo-2-azabicyclo[2.2.1]heptan-2-yl)-N-(cyclopropylsulfonyl)-3-fluoropicolinamide] | 7.9 | 157%
2 | O=C(NS(=O)(=O)C1CCCC1)c1ncc(N2C(=O)[C@@H]3C[C@H]2C[C@H]3OCc2c(-c3c(Cl)cccc3Cl)noc2C2CC2)cc1F [Compound I-356, N-(cyclopentylsulfonyl)-5-((1S,4R,5R)-5-((5-cyclopropyl-3-(2,6-dichlorophenyl)isoxazol-4-yl)methoxy)-3-oxo-2-azabicyclo[2.2.1]heptan-2-yl)-3-fluoropicolinamide] | 8.6 | 168%
3 | CC1(C)CC(S(=O)(=O)NC(=O)c2ncc(N3C(=O)[C@@H]4C[C@H]3C[C@H]4OCc3c(-c4c(Cl)cccc4Cl)noc3C3CC3)cc2F)CCO1 (stereo partly drawn) [Compound I-357, 5-((1S,4R,5R)-5-((5-cyclopropyl-3-(2,6-dichlorophenyl)isoxazol-4-yl)methoxy)-3-oxo-2-azabicyclo[2.2.1]heptan-2-yl)-N-((2,2-dimethyltetrahydro-2H-pyran-4-yl)sulfonyl)-3-fluoropicolinamide] | 8.4 | 166%
4 | C[C@H]1[C@H]2C[C@H](C[C@@H]2OCc2c(-c3c(Cl)cccc3Cl)noc2C2CC2)N1c1ccc(C(=O)O)cc1 [Compound I-361, 4-[(1R,3S,4R,5S)-5-[[5-cyclopropyl-3-(2,6-dichlorophenyl)-1,2-oxazol-4-yl]methoxy]-3-methyl-2-azabicyclo[2.2.1]heptan-2-yl]benzoic acid] | 6 | 52%
5 | C[C@@H]1[C@@H]2C[C@@H](C[C@H]2OCc2c(-c3c(Cl)cccc3Cl)noc2C2CC2)N1c1ccc(C(=O)O)c(F)c1 [Compound I-362, 4-[(1S,3R,4S,5R)-5-[[5-cyclopropyl-3-(2,6-dichlorophenyl)-1,2-oxazol-4-yl]methoxy]-3-methyl-2-azabicyclo[2.2.1]heptan-2-yl]-2-fluorobenzoic acid] | 7.2 | 72%
6 | C[C@@H]1[C@@H]2C[C@@H](C[C@H]2OCc2c(-c3c(Cl)cccc3Cl)noc2C2CC2)N1c1ccc(C(=O)O)cc1F [Compound I-363, 4-[(1S,3R,4S,5R)-5-[[5-cyclopropyl-3-(2,6-dichlorophenyl)-1,2-oxazol-4-yl]methoxy]-3-methyl-2-azabicyclo[2.2.1]heptan-2-yl]-3-fluorobenzoic acid] | 7.1 | 61%
7 | C[C@H]1[C@H]2C[C@H](C[C@@H]2OCc2c(-c3c(Cl)cccc3Cl)noc2C2CC2)N1c1ccc(C(=O)O)cc1F [Compound I-364, 4-[(1R,3S,4R,5S)-5-{[5-cyclopropyl-3-(2,6-dichlorophenyl)-1,2-oxazol-4-yl]methoxy}-3-methyl-2-azabicyclo[2.2.1]heptan-2-yl]-3-fluorobenzoic Acid] | 6.3 | 47%
8 | CC[C@@H]1[C@@H]2C[C@@H](C[C@H]2OCc2c(-c3c(Cl)cccc3Cl)noc2C2CC2)N1c1ccc(C(=O)O)cc1 [Compound I-365, 4-[(1S,3R,4S,5R)-5-[[5-cyclopropyl-3-(2,6-dichlorophenyl)-1,2-oxazol-4-yl]methoxy]-3-ethyl-2-azabicyclo[2.2.1]heptan-2-yl]benzoic acid] | 6.4 | 67%
9 | CC[C@H]1[C@H]2C[C@H](C[C@@H]2OCc2c(-c3c(Cl)cccc3Cl)noc2C2CC2)N1c1ccc(C(=O)O)cc1 [Compound I-366, 4-[(1R,3S,4R,5S)-5-[[5-cyclopropyl-3-(2,6-dichlorophenyl)-1,2-oxazol-4-yl]methoxy]-3-ethyl-2-azabicyclo[2.2.1]heptan-2-yl]benzoic acid] | 6.2 | 56%
10 | C[C@@H]1[C@@H]2C[C@@H](C[C@H]2OCc2c(-c3c(Cl)cccc3Cl)noc2C2CC2)N1c1ccc(C(=O)O)nc1 [Compound I-367, 5-[(1S,3R,4S,5R)-5-[[5-cyclopropyl-3-(2,6-dichlorophenyl)-1,2-oxazol-4-yl]methoxy]-3-methyl-2-azabicyclo[2.2.1]heptan-2-yl]pyridine-2-carboxylic Acid] | 6.4 | 61%
11 | C[C@H]1[C@H]2C[C@H](C[C@@H]2OCc2c(-c3c(Cl)cccc3Cl)noc2C2CC2)N1c1ccc(C(=O)O)nc1 [Compound I-368, 5-[(1R,3S,4R,5S)-5-[[5-cyclopropyl-3-(2,6-dichlorophenyl)-1,2-oxazol-4-yl]methoxy]-3-methyl-2-azabicyclo[2.2.1]heptan-2-yl]pyridine-2-carboxylic acid] | 5.8 | 22%
12 | C[C@@H]1[C@@H]2C[C@@H](C[C@H]2OCc2c(-c3c(Cl)cccc3Cl)noc2C2CC2)N1c1ccc(C(=O)O)cn1 [Compound I-369, 6-[(1S,3R,4S,5R)-5-[[5-cyclopropyl-3-(2,6-dichlorophenyl)-1,2-oxazol-4-yl]methoxy]-3-methyl-2-azabicyclo[2.2.1]heptan-2-yl]pyridine-3-carboxylic acid] | 6.8 | 50%
13 | C[C@H]1[C@H]2C[C@H](C[C@@H]2OCc2c(-c3c(Cl)cccc3Cl)noc2C2CC2)N1c1ccc(C(=O)O)cn1 [Compound I-370, 6-[(1R,3S,4R,5S)-5-[[5-cyclopropyl-3-(2,6-dichlorophenyl)-1,2-oxazol-4-yl]methoxy]-3-methyl-2-azabicyclo[2.2.1]heptan-2-yl]pyridine-3-carboxylic acid] | 4.5 | 79%
14 | C[C@@H]1[C@@H]2C[C@@H](C[C@H]2OCc2c(-c3c(Cl)cccc3Cl)noc2C2CC2)N1c1ccc(C(=O)NS(=O)(=O)C2CCOCC2)nc1 [Compound I-371, 5-[(1S,3R,4S,5R)-5-[[5-cyclopropyl-3-(2,6-dichlorophenyl)-1,2-oxazol-4-yl]methoxy]-3-methyl-2-azabicyclo[2.2.1]heptan-2-yl]-N-(oxane-4-sulfonyl)pyridine-2-carboxamide] | 6.7 | 57%
15 | C[C@H]1[C@H]2C[C@H](C[C@@H]2OCc2c(-c3c(Cl)cccc3Cl)noc2C2CC2)N1c1ccc(C(=O)NS(=O)(=O)C2CCOCC2)nc1 [Compound I-372, 5-[(1R,3S,4R,5S)-5-[[5-cyclopropyl-3-(2,6-dichlorophenyl)-1,2-oxazol-4-yl]methoxy]-3-methyl-2-azabicyclo[2.2.1]heptan-2-yl]-N-(oxane-4-sulfonyl)pyridine-2-carboxamide] | 6.1 | 22%
16 | C[C@@H]1[C@@H]2C[C@@H](C[C@H]2OCc2c(-c3c(Cl)cccc3Cl)noc2C2CC2)N1c1ccc(C(=O)NS(=O)(=O)C2CCOCC2)cn1 [Compound I-373, 6-[(1S,3R,4S,5R)-5-[[5-cyclopropyl-3-(2,6-dichlorophenyl)-1,2-oxazol-4-yl]methoxy]-3-methyl-2-azabicyclo[2.2.1]heptan-2-yl]-N-(oxane-4-sulfonyl)pyridine-3-carboxamide] | 7.2 | 62%
